Results taken from article PMC7397174, “4-Arylthieno[2,3-b]pyridine-2-carboxamides Are a New Class of Antiplasmodial Agents” (Molecules, 2020).
Counter-ions that a name gives are not always drawn.

Experiments:
[1] = biological target: rPfGSK-3 (Plasmodium falciparum, UniProt O77344); assay: KinaseGlo Plus assay for inhibition of PfGSK-3; assay type: biochemical; details: 10 µM; remaining activity, calculated on DMSO controls; Table 3; read-out: rPfGSK-3 Activity at 10 µM [%]
[2] = in vitro; assay type: cell-based, human; details: human, HEK293T Viability at 30 µM [%]
Experimental: Cytotoxic effects of test compounds on eukaryotic cells were investigated using a HEK293T cell viability assay. First, the cell density of a HEK293T culture was determined. […] The supernatant was then aspirated and fresh culture medium was added to 200 μL into which the test compounds were previously added. All substances were previously dissolved in DMSO. […] The viability of the cells was then examined by adding PrestoBlue® Cell Viability Agent (Invitrogen, Carlsbad, CA, USA). The supernatant was removed, 10% PrestoBlue® was added in preheated PBS and the culture was incubated for 30 min at 37 °C. In cells with an active metabolism, the PrestoBlue dye is reduced, causing it to fluorescence. The fluorescence (λex = 560 nm, λem = 590 nm) was measured in an EnVision Multilable Plate Reader (Perkin Elmer, Waltham, MA, USA; integration time 0.1 sec/well).

[3] = tested on: erythrocytic forms of P. falciparum (strain 3D7); assay: Viability screening of antiplasmodial activity (SYBR-gold DNA quantification, 96 h); assay type: cell-based, Plasmodium falciparum; details: for SI (Selectivity index for 3D7 erythrocytic forms versus HEK293 cells): 3D7 versus HEK293 cells; for IC50 / activity at 0.3 µM / activity at 3 µM: Plasmodium falciparum; for IC50: 3D7, strain 3D7, erythrocytic forms; for activity at 0.3 µM / activity at 3 µM: 96 h, strain 3D7, calculated on DMSO controls; for activity at 0.3 µM: read-out: Parasitemia (3D7) at 0.3 µM [%]; for activity at 3 µM: read-out: Parasitemia (3D7) at 3 µM [%]; for IC50 (3D7) [nM]: strain 3D7, erythrocytic forms

Sequence of rPfGSK-3 (O77344 entry or part of it): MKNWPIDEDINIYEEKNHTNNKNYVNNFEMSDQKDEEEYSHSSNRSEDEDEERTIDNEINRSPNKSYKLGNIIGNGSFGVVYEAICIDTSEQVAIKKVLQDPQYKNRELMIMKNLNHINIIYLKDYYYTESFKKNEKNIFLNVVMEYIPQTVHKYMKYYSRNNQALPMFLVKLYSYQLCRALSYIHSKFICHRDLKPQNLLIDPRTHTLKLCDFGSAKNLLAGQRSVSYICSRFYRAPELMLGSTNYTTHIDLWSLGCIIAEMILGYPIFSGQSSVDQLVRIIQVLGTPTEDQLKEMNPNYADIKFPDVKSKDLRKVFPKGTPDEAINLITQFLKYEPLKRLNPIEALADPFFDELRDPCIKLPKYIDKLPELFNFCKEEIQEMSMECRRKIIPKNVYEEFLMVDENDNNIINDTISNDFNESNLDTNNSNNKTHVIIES

| SMILES | remaining activity at 10 µM [1] [%] | viability at 48 h, 30 µM [2] [%] | SI (Selectivity index for 3D7 erythrocytic forms versus HEK293 cells) [3] | IC50 [3] [µM] | activity at 0.3 µM [3] [%] | activity at 3 µM ([3]; 3 µM) [%] | IC50 (3D7) [nM] [3] | antiplasmodial activity at the concentration investigated (in words) ([3]; 3 µM) |
| --- | --- | --- | --- | --- | --- | --- | --- | --- |
| Cc1cccc(-c2c(C#N)c(N)nc3sc(C(=O)Nc4ccc(Cl)cc4)c(N)c23)c1 [Compound 9e, 3,6-Diamino-N-(4-chlorophenyl)-5-cyano-4-(3-methylphenyl)thieno[2,3-b]pyridine-2-carboxamide] | 106 ± 6.5 | 83.3 ± 20.6 | >100 | 0.273 | 9.7 ± 6.8 | 5.6 ± 5.5 |  |  |
| CN(C)CCN(C)c1ccc(-c2c(C#N)c(N)nc3sc(C(=O)Nc4ccc(F)cc4)c(N)c23)c(Cl)c1 [Compound 9ab, 3,6-Diamino-4-(2-chloro-4-{[2-(dimethylamino)ethyl](methyl)amino}phenyl)-5-cyano-N-(4-fluorophenyl)thieno[2,3-b]pyridine-2-carboxamide] | 112 ± 13.9 | -1.4 ± 13.1 |  |  | 16.7 ± 19.5 | 1.6 ± 11 |  |  |
| N#Cc1c(N)nc2sc(C(=O)Nc3ccccc3Cl)c(N)c2c1-c1ccc(N2CCOCC2)cc1Cl [Compound 9u, 3,6-Diamino-4-(2-chloro-4-morpholinophenyl)-N-(2-chlorophenyl)-5-cyanothieno[2,3-b]pyridine-2-carboxamide] | 110 ± 6.2 | 87 ± 26.7 |  |  | 74.5 ± 21.2 | 53.1 ± 29.6 |  |  |
| Cc1nc2sc(C(=O)Nc3ccc(Cl)cc3)c(N)c2c(-c2ccccc2)c1C(=O)OC(C)(C)C [Compound 17g, tert-Butyl 3-amino-2-[(4-chlorophenyl)carbamoyl]-6-methyl-4-phenylthieno[2,3-b]pyridine-5-carboxylate] | 101 ± 5.5 | 56.9 ± 31.3 | >100 | 0.0253 | 11.7 ± 10.1 | 9.8 ± 15.1 | two-digit nanomolar range |  |
| N#Cc1c(N)nc2sc(C(=O)Nc3ccc(Cl)cc3)c(N)c2c1-c1cccc(F)c1 [Compound 9h, 3,6-Diamino-N-(4-chlorophenyl)-5-cyano-4-(3-fluorophenyl)thieno[2,3-b]pyridine-2-carboxamide] | 104 ± 13.3 | 90.7 ± 13.2 |  |  | 63.2 ± 19.5 | 3.9 ± 2.9 |  |  |
| N#Cc1c(N)nc2sc(C(=O)Nc3cccc(Cl)c3)c(N)c2c1-c1ccc(N2CCNCC2)cc1Cl [Compound 9q, 3,6-Diamino-4-[2-chloro-4-(piperazin-1-yl)phenyl]-N-(3-chlorophenyl)-5-cyanothieno[2,3-b]pyridine-2-carboxamide hydrochloride] | 72.6 ± 12.8 | -13.1 ± 5.4 |  |  | 6.5 ± 3.1 | 4.9 ± 3 |  |  |
| CN(CCNC(=O)OC(C)(C)C)c1ccc(-c2c(C#N)c(N)nc3sc(C(=O)Nc4ccc(Cl)cc4)c(N)c23)c(Cl)c1 [Compound 9y, tert-Butyl {2-[(3-chloro-4-{3,6-diamino-2-[(4-chlorophenyl)carbamoyl]-5-cyanothieno[2,3-b]pyridin-4-yl}phenyl)(methyl)amino]ethyl}carbamate] | 110 ± 7.7 | 81.7 ± 19.6 | >40 | 0.699 | 36.6 ± 27.4 | 5.5 ± 4.6 |  |  |
| Cc1cccc(-c2c3c(nc4sc(C(=O)Nc5ccc(Cl)cc5)c(N)c24)CCC3)c1 [Compound 17f, 3-Amino-N-(4-chlorophenyl)-4-(3-methylphenyl)-6,7-dihydro-5H-cyclopenta[b]thieno[3,2-e]pyridine-2-carboxamide] | 103 ± 6.2 | 72.4 ± 23.4 | >100 | 0.0192 | 9.1 ± 16.1 | 1 ± 14.9 | two-digit nanomolar range |  |
| CN(CCNC(=O)OC(C)(C)C)c1ccc(-c2c(C#N)c(N)nc3sc(C(=O)Nc4ccc(F)cc4)c(N)c23)c(Cl)c1 [Compound 9ac, tert-Butyl {2-[(3-chloro-4-{3,6-diamino-5-cyano-2-[(4-fluorophenyl)carbamoyl]thieno[2,3-b]pyridin-4-yl}phenyl)(methyl)amino]ethyl}carbamate] | 85.7 ± 8.2 | 55.8 ± 25.1 |  |  | 30.1 ± 14.2 | 7.5 ± 5.9 |  |  |
| Cc1nc2sc(C(=O)Nc3ccc(Cl)cc3)c(N)c2c(-c2ccccc2)c1C(=O)O [Compound 17j, 3-Amino-2-[(4-chlorophenyl)carbamoyl]-6-methyl-4-phenylthieno[2,3-b]pyridine-5-carboxylic acid] | 108 ± 10.4 | 95.8 ± 9.8 |  |  | 76.1 ± 23.1 | 97.1 ± 19.9 |  | no |
| N#Cc1c(N)nc2sc(C(=O)Nc3ccc(Cl)cc3)c(N)c2c1-c1ccc(N2CCOCC2)cc1Cl [Compound 9v, 3,6-Diamino-4-(2-chloro-4-morpholinophenyl)-N-(4-chlorophenyl)-5-cyanothieno[2,3-b]pyridine-2-carboxamide] | 91.8 ± 18.7 | 92.3 ± 18.8 | >20 | 1.47 | 51.8 ± 38.6 | 6.2 ± 6.1 |  |  |
| CN(CCNC(=O)OC(C)(C)C)c1ccc(-c2c(C#N)c(N)nc3sc(C(=O)Nc4ccccc4Cl)c(N)c23)c(Cl)c1 [Compound 9ad, tert-Butyl {2-[(3-chloro-4-{3,6-diamino-2-[(2-chlorophenyl)carbamoyl]-5-cyanothieno[2,3-b]pyridin-4-yl}phenyl)(methyl)amino]ethyl}carbamate] | 95 ± 10.7 | 76.3 ± 24.1 |  |  | 57.7 ± 24.1 | 13.3 ± 9.9 |  |  |
| N#Cc1c(N)nc2sc(C(=O)Nc3ccc(Cl)cc3)c(N)c2c1-c1ccc(N2CCCC2)cc1Cl [Compound 9z, 3,6-Diamino-4-[2-chloro-4-(pyrrolidin-1-yl)phenyl]-N-(4-chlorophenyl)-5-cyanothieno[2,3-b]pyridine-2-carboxamide] | 109 ± 4.9 | 91.9 ± 13.6 |  |  | 73.1 ± 22.1 | 6.4 ± 5.8 |  |  |
| CC(C)(C)OC(=O)N1CCN(c2ccc(-c3c4c(nc5sc(C(=O)Nc6ccc(Cl)cc6)c(N)c35)CCC4)c(Cl)c2)CC1 [Compound 17a, tert-Butyl 4-(4-{3-amino-2-[(4-chlorophenyl)carbamoyl]-6,7-dihydro-5H-cyclopenta[b]thieno[3,2-e]-pyridin-4-yl}-3-chlorophenyl)piperazine-1-carboxylate] | 102 ± 4 | 93.9 ± 6.5 |  |  | 50.5 ± 26.3 | 8 ± 10.2 |  |  |
| CN(CCNC(=O)OC(C)(C)C)c1ccc(-c2c(C#N)c(N)nc3sc(C(=O)Nc4cccc(Cl)c4)c(N)c23)c(Cl)c1 [Compound 9w, tert-Butyl {2-[(3-chloro-4-{3,6-diamino-2-[(3-chlorophenyl)carbamoyl]-5-cyanothieno[2,3-b]pyridin-4-yl}phenyl)(methyl)amino]ethyl}carbamate] | 95.3 ± 8.6 | 76.1 ± 17.3 | >30 | 0.86 | 50.1 ± 37.9 | 3.6 ± 2.4 |  |  |
| N#Cc1c(N)nc2sc(C(=O)Nc3ccccc3Cl)c(N)c2c1-c1cccc(F)c1 [Compound 9b, 3,6-Diamino-N-(2-chlorophenyl)-5-cyano-4-(3-fluorophenyl)thieno[2,3-b]pyridine-2-carboxamide] | 102 ± 16.5 | 101 ± 19.6 |  |  | 96 ± 1.9 | 46 ± 19.7 |  |  |
